Results: patent US20140343049A1, “DIHYDROFURAN DERIVATIVES AS INSECTICIDAL COMPOUNDS” (SYNGENTA PARTICIPATIONS AG, priority 2011, published 2014)

Legend:
Format in all cases: in vivo
[1] = test system: Tetranychus urticae (two-spotted spider mite); assay: Tetranychus urticae bean leaf disc spray test; settings: foliar, 192 h, bean leaf discs sprayed at 200 ppm, mixed ages, egg, larval and adult mortality 8 days later
Procedure, shortened: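 Leaf discs of bean on agar were sprayed at 200 ppm, dried, then infested with mixed-age mites. Egg, larval and adult mortality were scored 8 days later.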

[2] = test system: Heliothis virescens (tobacco budworm); assay: Heliothis virescens egg test on artificial diet; settings: 96 h, 200 ppm (concentration in well 18 ppm), eggs 0-24 h old, 4 days, egg mortality, larval mortality, growth regulation
Protocol: Eggs (0-24 h old) were placed in 24-well microtiter plate on artificial diet and treated with test solutions at an application rate of 200 ppm (concentration in well 18 ppm) by pipetting. After an incubation period of 4 days, samples were checked for egg mortality, larval mortality, and growth regulation.

[3] = test system: Myzus persicae (green peach aphid); assay: Myzus persicae (sachet) mixed population test; settings: 120 h, sucrose solution, application rate 12.5 ppm, mortality 5 days after infestation
From the text: Test compounds were applied by pipette into 24 well plates and mixed with Sucrose solution. The plates were closed with a stretched Parafilm. A plastic stencil with 24 holes is placed onto the plate and infested pea seedlings were placed directly on the Parafilm. The infested plate is closed with a gel blotting paper and another plastic stencil and then turned upside down. 5 days after infestation the samples were checked on mortality. Application rate: 12.5 ppm.

[4] = test system: Thrips tabaci (onion thrips); assay: Thrips tabaci sunflower leaf disc spray test; settings: foliar, 168 h, sunflower leaf discs sprayed at 200 ppm, mixed ages, mortality after 7 days
Protocol: Sunflower leaf discs were placed on agar in a 24-well microtiter plate and sprayed with test solutions at an application rate of 200 ppm. […] After drying, the leaf discs were infested with a thrip population of mixed ages. After an incubation period of 7 days, samples were checked for mortality.

[5] = test system: Spodoptera littoralis (Egyptian cotton leaf worm); assay: Spodoptera littoralis (systemic) test, compound in agar taken up by salad roots; settings: 120 h, application rate 12.5 ppm, checked 5 days after infestation for mortality, repellent effect, feeding behavior, growth regulation
From the text: (§1) Test compounds were applied by pipette into 24 well plates and mixed with agar. Salad seeds were placed on the agar and the multi well plate is closed by another plate which contains also agar. After 7 days the roots have absorbed the compound and the salad has grown into the lid plate. The salad leafs were now cut off into the lid plate. Spodoptera eggs were pipette through a plastic stencil on a humid gel blotting paper and the plate closed with it. The samples are checked for mortality, repellent effect, feeding behavior, and growth regulation 5 days after infestation. Application rate: 12.5 ppm
as §1, with “infestation.” for “infestation. Application rate: 12.5 ppm”

[6] = test system: Plutella xylostella (diamond back moth); assay: Plutella xylostella L2 larvae test on artificial diet; settings: 144 h, 200 ppm (concentration in well 18 ppm), 6 days, larval mortality and growth regulation
Protocol: 24-well microtiter plate (MTP) with artificial diet was treated with test solutions at an application rate of 200 ppm (concentration in well 18 ppm) by pipetting. After drying, the MTPs were infested with L2 larvae (7-12 per well). After an incubation period of 6 days, samples were checked for larval mortality and growth regulation.

[7] = test system: Spodoptera littoralis (Egyptian cotton leafworm); assay: Spodoptera littoralis cotton leaf disc spray test; settings: foliar, 72 h, cotton leaf discs sprayed at 200 ppm, 5 L1 larvae, mortality, feeding behavior, growth regulation 3 days after treatment
From the text: Cotton leaf discs were placed on agar in a 24-well microtiter plate and sprayed with test solutions at an application rate of 200 ppm. After drying, the leaf discs were infested with 5 L1 larvae. The samples were checked for mortality, feeding behavior, and growth regulation 3 days after treatment (DAT).

[8] = test system: Diabrotica balteata (corn root worm); assay: Diabrotica balteata L2 larvae test on artificial diet; settings: 120 h, 200 ppm (concentration in well 18 ppm), 5 days, larval mortality and growth regulation
Procedure, shortened: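 Artificial diet treated with test solution at 200 ppm or 12.5 ppm application rate (in-well concentration stated as 18 ppm), dried, then infested with 6-10 L2 larvae per well. Larval mortality and growth regulation scored after 5 days.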

Cc1cc(C2=CC(c3cc(Cl)cc(Cl)c3)(C(F)(F)F)OC2)ccc1C(=O)NCC(=O)NCC(F)(F)F (stereo not shown) [Compound A1, 4-[5-(3,5-Dichloro-phenyl)-5-trifluoromethyl-2,5-dihydro-furan-3-yl]-2-methyl-N-[(2,2,2-trifluoro-ethylcarbamoyl)-methyl]-benzamide]
≥ 80%: pest or weed control at 200 ppm [1] | pest or weed control at 200 ppm [2] | pest or weed control at 12.5 ppm [3] | pest or weed control at 200 ppm [4] | pest or weed control at 12.5 ppm [5] | pest or weed control at 200 ppm [6] | pest or weed control at 200 ppm [7] | pest or weed control at 200 ppm [8]

Cc1cc(C2=CC(c3cc(Cl)cc(Cl)c3)(C(F)(F)F)OC2)ccc1C(=O)NC1CSC1 (stereo not shown) [Compound A2]
≥ 80%: pest or weed control at 200 ppm [1] | pest or weed control at 200 ppm [2] | pest or weed control at 12.5 ppm [3] | pest or weed control at 200 ppm [4] | pest or weed control at 200 ppm [7]

Cc1cc(C2=CC(c3cc(Cl)cc(Cl)c3)(C(F)(F)F)OC2)ccc1C(=O)NC1CS(=O)(=O)C1 (stereo not shown) [Compound A15]
≥ 80%: pest or weed control at 200 ppm [1] | pest or weed control at 200 ppm [2] | pest or weed control at 12.5 ppm [3] | pest or weed control at 200 ppm [4] | pest or weed control at 12.5 ppm [5] | pest or weed control at 200 ppm [6] | pest or weed control at 200 ppm [7] | pest or weed control at 200 ppm [8]

CCN1OC[C@H](NC(=O)c2ccc(C3=CC(c4cc(Cl)cc(Cl)c4)(C(F)(F)F)OC3)cc2C)C1=O (stereo partly drawn) [Compound A16, 4-[5-(3,5-Dichloro-phenyl)-5-trifluoromethyl-2,5-dihydro-furan-3-yl]-N—((S)-2-ethyl-3-oxo-isoxazolidin-4-yl)-2-methyl-benzamide]
≥ 80%: pest or weed control at 200 ppm [1] | pest or weed control at 200 ppm [2] | pest or weed control at 12.5 ppm [3] | pest or weed control at 200 ppm [4] | pest or weed control at 12.5 ppm [5] | pest or weed control at 200 ppm [6] | pest or weed control at 200 ppm [7] | pest or weed control at 200 ppm [8]

Cc1cc(C2=CC(c3cc(Cl)cc(Cl)c3)(C(F)(F)F)OC2)ccc1C(=O)NCC1CSC1 (stereo not shown) [Compound A78]
≥ 80%: pest or weed control at 200 ppm [1] | pest or weed control at 200 ppm [2] | pest or weed control at 12.5 ppm [3] | pest or weed control at 200 ppm [4] | pest or weed control at 200 ppm [6] | pest or weed control at 200 ppm [7] | pest or weed control at 200 ppm [8]

Cc1cc(C2=CC(c3cc(Cl)cc(Cl)c3)(C(F)(F)F)OC2)ccc1C(=O)NCCC1CSC1 (stereo not shown) [Compound A82]
≥ 80%: pest or weed control at 200 ppm [1] | pest or weed control at 200 ppm [2] | pest or weed control at 12.5 ppm [3] | pest or weed control at 200 ppm [4] | pest or weed control at 200 ppm [6] | pest or weed control at 200 ppm [7] | pest or weed control at 200 ppm [8]

Cc1nc(C2=CC(c3cc(Cl)cc(Cl)c3)(C(F)(F)F)OC2)ccc1C(=O)NCC(=O)NCC(F)(F)F (stereo not shown) [Compound C5]
≥ 80%: pest or weed control at 200 ppm [1] | pest or weed control at 200 ppm [2] | pest or weed control at 12.5 ppm [3] | pest or weed control at 200 ppm [4] | pest or weed control at 12.5 ppm [5] | pest or weed control at 200 ppm [6] | pest or weed control at 200 ppm [7] | pest or weed control at 200 ppm [8]

Cc1nc(C2=CC(c3cc(Cl)cc(Cl)c3)(C(F)(F)F)OC2)ccc1C(=O)NC1CS(=O)(=O)C1 (stereo not shown) [Compound C13]
≥ 80%: pest or weed control at 200 ppm [1] | pest or weed control at 200 ppm [2] | pest or weed control at 12.5 ppm [3] | pest or weed control at 200 ppm [4] | pest or weed control at 12.5 ppm [5] | pest or weed control at 200 ppm [6] | pest or weed control at 200 ppm [7] | pest or weed control at 200 ppm [8]

Cc1nc(C2=CC(c3cc(Cl)cc(Cl)c3)(C(F)(F)F)OC2)ccc1C(=O)NC1C[S+]([O-])C1 (stereo not shown) [Compound C22]
≥ 80%: pest or weed control at 200 ppm [1] | pest or weed control at 200 ppm [2] | pest or weed control at 12.5 ppm [3] | pest or weed control at 200 ppm [4] | pest or weed control at 200 ppm [6] | pest or weed control at 200 ppm [7] | pest or weed control at 200 ppm [8]

Cc1cc(C2=CC(c3cc(Cl)cc(Cl)c3)(C(F)(F)F)OC2)ccc1C(=O)NCC(F)(F)F (stereo not shown) [Compound D1]
≥ 80%: pest or weed control at 200 ppm [4] | pest or weed control at 12.5 ppm [5]

CCCCNC(=O)c1ccc(C2=CC(c3cc(Cl)cc(Cl)c3)(C(F)(F)F)OC2)cc1C (stereo not shown) [Compound D3]
≥ 80%: pest or weed control at 200 ppm [1] | pest or weed control at 12.5 ppm [3] | pest or weed control at 200 ppm [4]

COCC(C)NC(=O)c1ccc(C2=CC(c3cc(Cl)cc(Cl)c3)(C(F)(F)F)OC2)cc1C (stereo not shown) [Compound D4]
≥ 80%: pest or weed control at 200 ppm [1] | pest or weed control at 12.5 ppm [3] | pest or weed control at 200 ppm [4]

Cc1cc(C2=CC(c3cc(Cl)cc(Cl)c3)(C(F)(F)F)OC2)ccc1C(=O)NCC1CCCO1 (stereo not shown) [Compound D8]
≥ 80%: pest or weed control at 200 ppm [1] | pest or weed control at 12.5 ppm [3] | pest or weed control at 200 ppm [4] | pest or weed control at 12.5 ppm [5]

Cc1cc(C2=CC(c3cc(Cl)cc(Cl)c3)(C(F)(F)F)OC2)ccc1C(=O)NCc1ccccc1 (stereo not shown) [Compound D9]
≥ 80%: pest or weed control at 200 ppm [1] | pest or weed control at 200 ppm [2] | pest or weed control at 12.5 ppm [3] | pest or weed control at 200 ppm [4] | pest or weed control at 200 ppm [6] | pest or weed control at 200 ppm [7]

Cc1cc(C2=CC(c3cc(Cl)cc(Cl)c3)(C(F)(F)F)OC2)ccc1C(=O)NCc1ccccc1F (stereo not shown) [Compound D10]
≥ 80%: pest or weed control at 200 ppm [1] | pest or weed control at 200 ppm [2] | pest or weed control at 12.5 ppm [3] | pest or weed control at 200 ppm [4] | pest or weed control at 200 ppm [6] | pest or weed control at 200 ppm [7] | pest or weed control at 200 ppm [8]

Cc1cc(C2=CC(c3cc(Cl)cc(Cl)c3)(C(F)(F)F)OC2)ccc1C(=O)NC1C[S+]([O-])C1 (stereo not shown) [Compound D20]
≥ 80%: pest or weed control at 12.5 ppm [5] | pest or weed control at 200 ppm [6] | pest or weed control at 200 ppm [8]

Cc1cc(C2=CC(c3cc(Cl)cc(Cl)c3)(C(F)(F)F)OC2)ccc1C(=O)NC1CSC1 (stereo not shown) [Compound D21]
≥ 80%: pest or weed control at 12.5 ppm [5] | pest or weed control at 200 ppm [6] | pest or weed control at 200 ppm [8]

Cc1cc(C2=COC(c3cc(Cl)cc(Cl)c3)(C(F)(F)F)C2)ccc1C(=O)N[C@@H]1CON(CC(F)(F)F)C1=O (stereo partly drawn) [Compound D25, 4-[2-(3,5-dichlorophenyl)-2-(trifluoromethyl)-3H-furan-4-yl]-2-methyl-N-[(4R)-3-oxo-2-(2,2,2-trifluoroethyl)isoxazolidin-4-yl]benzamide]
≥ 80%: pest or weed control at 200 ppm [1] | pest or weed control at 200 ppm [2] | pest or weed control at 12.5 ppm [3] | pest or weed control at 200 ppm [4] | pest or weed control at 200 ppm [6] | pest or weed control at 200 ppm [7] | pest or weed control at 200 ppm [8]

N#Cc1cc(C2=CO[C@@](c3cc(Cl)cc(Cl)c3)(C(F)(F)F)C2)ccc1-n1cncn1 [H1*, 5-[(2S)-2-(3,5-dichlorophenyl)-2-(trifluoromethyl)-3H-furan-4-yl]-2-(1,2,4-triazol-1-yl)benzonitrile]
≥ 80%: pest or weed control at 200 ppm [2] | pest or weed control at 12.5 ppm [3] | pest or weed control at 200 ppm [4] | pest or weed control at 200 ppm [6] | pest or weed control at 200 ppm [8]
